Test in all cases: radiometric kinase profiling (33 PanQinase)
What all share (type): biochemical

Assay [1] deals with T1, PDGFRA (Homo sapiens, UniProt P16234).
T1 construct: purchased ProQinase (33PanQinase Activity Assay)
The following applies: read-out: Inhibitory effect (%) PDGFRA. Put shortly: (§1)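 Enzyme/substrate mixes were incubated with [γ-33P]-ATP and compound (added as a 0.1 μM solution in 10% DMSO) at 30 °C for 60 min, then stopped with H3PO4 and washed with NaCl. 33P incorporation was scintillation-counted, and residual activity (%) was normalized to untreated control and background.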

Assay [2] has as its target T2, IKBKB (Homo sapiens, UniProt O14920).
T2 construct: purchased ProQinase (33PanQinase Activity Assay)
T2 sequence (O14920 1-756): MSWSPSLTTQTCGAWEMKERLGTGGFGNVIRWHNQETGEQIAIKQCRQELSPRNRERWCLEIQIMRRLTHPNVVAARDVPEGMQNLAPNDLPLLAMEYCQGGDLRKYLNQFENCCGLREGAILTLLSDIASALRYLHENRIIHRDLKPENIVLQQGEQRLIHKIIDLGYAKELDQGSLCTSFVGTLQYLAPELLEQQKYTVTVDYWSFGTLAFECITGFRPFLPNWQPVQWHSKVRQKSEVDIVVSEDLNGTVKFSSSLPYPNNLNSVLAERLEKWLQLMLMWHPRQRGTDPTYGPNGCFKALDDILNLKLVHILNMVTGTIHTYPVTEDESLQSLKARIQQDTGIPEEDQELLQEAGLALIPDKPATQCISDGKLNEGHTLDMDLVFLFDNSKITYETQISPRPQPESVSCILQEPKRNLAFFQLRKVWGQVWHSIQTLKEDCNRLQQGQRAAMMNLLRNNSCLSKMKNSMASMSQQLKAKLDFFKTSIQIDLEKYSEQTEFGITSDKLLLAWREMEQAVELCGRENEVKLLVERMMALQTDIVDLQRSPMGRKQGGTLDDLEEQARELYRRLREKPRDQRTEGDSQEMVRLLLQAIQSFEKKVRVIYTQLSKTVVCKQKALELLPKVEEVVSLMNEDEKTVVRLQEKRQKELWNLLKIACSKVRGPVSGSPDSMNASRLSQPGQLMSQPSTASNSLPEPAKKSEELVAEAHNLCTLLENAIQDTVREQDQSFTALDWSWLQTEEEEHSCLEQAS
The note with it: read-out: Inhibitory effect (%) IKBKB. The method, boiled down:
as §1

Assay [3] concerns the target T3, RET (Homo sapiens, UniProt P07949).
T3 construct: purchased ProQinase (33PanQinase Activity Assay)
The note with it: read-out: Inhibitory effect (%) RET. The method, boiled down: as §1

Assay [4] concerns the target T4, GSK3B (Homo sapiens, UniProt P49841).
T4 construct: purchased ProQinase (33PanQinase Activity Assay)
The note with it: read-out: Inhibitory effect (%) GSK3B. Put shortly: as §1

Assay [5] has as its target T5, EPHB4 (Homo sapiens, UniProt P54760).
T5 construct: purchased ProQinase (33PanQinase Activity Assay)
T5 sequence (P54760 16-987): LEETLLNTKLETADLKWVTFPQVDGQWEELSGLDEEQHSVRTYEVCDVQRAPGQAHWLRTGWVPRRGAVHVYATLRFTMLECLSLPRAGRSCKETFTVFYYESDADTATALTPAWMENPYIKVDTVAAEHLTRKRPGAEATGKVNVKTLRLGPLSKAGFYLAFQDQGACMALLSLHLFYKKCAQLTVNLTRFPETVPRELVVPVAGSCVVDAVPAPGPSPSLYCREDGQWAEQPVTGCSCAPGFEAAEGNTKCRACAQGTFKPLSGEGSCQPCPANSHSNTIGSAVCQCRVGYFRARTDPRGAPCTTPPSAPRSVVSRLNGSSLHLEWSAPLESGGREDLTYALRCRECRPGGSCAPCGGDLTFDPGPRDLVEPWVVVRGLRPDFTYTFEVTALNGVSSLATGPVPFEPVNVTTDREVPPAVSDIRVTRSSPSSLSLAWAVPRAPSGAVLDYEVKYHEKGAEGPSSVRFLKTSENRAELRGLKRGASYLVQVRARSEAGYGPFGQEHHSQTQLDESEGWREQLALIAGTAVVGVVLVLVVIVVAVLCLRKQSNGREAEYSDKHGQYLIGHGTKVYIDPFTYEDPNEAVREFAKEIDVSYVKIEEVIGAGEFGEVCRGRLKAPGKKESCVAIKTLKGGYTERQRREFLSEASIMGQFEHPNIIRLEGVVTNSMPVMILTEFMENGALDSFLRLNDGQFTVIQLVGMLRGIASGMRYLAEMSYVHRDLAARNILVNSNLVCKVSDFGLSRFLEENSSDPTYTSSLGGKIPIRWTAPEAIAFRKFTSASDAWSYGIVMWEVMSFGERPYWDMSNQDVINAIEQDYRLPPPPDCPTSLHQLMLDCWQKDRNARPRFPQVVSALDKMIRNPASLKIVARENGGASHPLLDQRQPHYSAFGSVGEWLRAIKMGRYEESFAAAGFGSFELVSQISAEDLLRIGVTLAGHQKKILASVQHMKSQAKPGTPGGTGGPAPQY
The note with it: read-out: Inhibitory effect (%) EPHB4. Put shortly: as §1

Assay [6] concerns the target T6, ABL1 (Homo sapiens, UniProt P00519).
T6 construct: purchased Proqinase, Germany
The following applies: read-out: Inhibitory effect (%) ABL1. The method, boiled down:
as §1

Assay [7] deals with T7, BTK (Homo sapiens, UniProt Q06187).
T7 construct: purchased Proqinase, Germany
T7 sequence (Q06187 whole entry): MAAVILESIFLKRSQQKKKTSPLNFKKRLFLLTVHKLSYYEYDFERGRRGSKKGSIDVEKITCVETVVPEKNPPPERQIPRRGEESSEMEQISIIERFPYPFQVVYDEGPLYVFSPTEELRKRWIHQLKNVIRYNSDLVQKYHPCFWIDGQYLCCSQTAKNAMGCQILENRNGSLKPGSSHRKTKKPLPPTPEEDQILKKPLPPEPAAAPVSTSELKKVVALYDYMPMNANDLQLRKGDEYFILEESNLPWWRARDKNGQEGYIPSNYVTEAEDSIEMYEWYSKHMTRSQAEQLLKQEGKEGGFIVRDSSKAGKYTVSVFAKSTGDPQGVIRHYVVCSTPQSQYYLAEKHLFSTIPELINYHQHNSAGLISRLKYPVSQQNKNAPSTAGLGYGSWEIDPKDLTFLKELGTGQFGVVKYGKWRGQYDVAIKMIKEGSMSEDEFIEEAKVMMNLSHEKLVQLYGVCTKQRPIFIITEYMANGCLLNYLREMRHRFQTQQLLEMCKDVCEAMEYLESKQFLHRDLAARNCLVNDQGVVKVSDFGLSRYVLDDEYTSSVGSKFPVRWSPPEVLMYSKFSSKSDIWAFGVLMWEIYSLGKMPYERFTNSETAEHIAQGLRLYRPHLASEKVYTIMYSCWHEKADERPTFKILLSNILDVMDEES
The following applies: read-out: Inhibitory effect (%) BTK. The method, boiled down: as §1

Structures are written as SMILES.

T1 sequence (P16234 24-1089): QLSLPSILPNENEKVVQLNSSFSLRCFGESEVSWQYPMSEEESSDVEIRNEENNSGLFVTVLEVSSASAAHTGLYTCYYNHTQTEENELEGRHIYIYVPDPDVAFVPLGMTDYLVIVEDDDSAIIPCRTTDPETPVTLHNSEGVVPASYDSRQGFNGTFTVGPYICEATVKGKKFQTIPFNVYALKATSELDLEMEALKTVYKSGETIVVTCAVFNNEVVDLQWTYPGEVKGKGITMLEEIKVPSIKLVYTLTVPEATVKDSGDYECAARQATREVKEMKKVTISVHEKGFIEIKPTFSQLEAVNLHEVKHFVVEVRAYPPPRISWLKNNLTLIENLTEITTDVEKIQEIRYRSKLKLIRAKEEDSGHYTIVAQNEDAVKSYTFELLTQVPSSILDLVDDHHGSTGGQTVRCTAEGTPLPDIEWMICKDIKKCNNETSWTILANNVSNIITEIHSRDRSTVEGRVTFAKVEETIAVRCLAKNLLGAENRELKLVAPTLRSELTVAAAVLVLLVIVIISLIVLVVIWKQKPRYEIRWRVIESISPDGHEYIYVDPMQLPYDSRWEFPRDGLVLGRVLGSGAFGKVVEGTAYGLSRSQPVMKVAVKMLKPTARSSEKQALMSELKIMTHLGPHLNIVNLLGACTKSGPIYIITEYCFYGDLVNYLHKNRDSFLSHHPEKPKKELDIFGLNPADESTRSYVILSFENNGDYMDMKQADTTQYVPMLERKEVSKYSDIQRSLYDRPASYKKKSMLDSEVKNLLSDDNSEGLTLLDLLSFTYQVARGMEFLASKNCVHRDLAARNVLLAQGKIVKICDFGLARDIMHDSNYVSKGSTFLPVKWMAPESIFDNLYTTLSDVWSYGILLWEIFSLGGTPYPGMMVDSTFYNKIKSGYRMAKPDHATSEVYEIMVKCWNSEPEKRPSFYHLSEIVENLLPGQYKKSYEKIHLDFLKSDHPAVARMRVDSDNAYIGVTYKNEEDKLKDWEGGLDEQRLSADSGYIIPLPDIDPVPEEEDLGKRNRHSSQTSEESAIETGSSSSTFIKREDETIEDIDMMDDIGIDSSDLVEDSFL
T4 sequence (P49841 whole entry): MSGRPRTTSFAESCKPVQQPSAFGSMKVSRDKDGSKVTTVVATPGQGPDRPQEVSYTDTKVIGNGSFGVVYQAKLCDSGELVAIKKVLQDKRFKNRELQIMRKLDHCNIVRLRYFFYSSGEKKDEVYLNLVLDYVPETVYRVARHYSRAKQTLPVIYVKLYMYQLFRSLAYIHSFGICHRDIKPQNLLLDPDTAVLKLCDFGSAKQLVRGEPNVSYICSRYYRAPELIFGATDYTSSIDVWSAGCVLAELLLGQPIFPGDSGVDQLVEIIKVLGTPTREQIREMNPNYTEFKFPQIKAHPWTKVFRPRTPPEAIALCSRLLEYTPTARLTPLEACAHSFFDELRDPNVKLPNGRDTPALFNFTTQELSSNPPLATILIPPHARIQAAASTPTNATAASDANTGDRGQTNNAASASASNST
T6 sequence (P00519 whole entry): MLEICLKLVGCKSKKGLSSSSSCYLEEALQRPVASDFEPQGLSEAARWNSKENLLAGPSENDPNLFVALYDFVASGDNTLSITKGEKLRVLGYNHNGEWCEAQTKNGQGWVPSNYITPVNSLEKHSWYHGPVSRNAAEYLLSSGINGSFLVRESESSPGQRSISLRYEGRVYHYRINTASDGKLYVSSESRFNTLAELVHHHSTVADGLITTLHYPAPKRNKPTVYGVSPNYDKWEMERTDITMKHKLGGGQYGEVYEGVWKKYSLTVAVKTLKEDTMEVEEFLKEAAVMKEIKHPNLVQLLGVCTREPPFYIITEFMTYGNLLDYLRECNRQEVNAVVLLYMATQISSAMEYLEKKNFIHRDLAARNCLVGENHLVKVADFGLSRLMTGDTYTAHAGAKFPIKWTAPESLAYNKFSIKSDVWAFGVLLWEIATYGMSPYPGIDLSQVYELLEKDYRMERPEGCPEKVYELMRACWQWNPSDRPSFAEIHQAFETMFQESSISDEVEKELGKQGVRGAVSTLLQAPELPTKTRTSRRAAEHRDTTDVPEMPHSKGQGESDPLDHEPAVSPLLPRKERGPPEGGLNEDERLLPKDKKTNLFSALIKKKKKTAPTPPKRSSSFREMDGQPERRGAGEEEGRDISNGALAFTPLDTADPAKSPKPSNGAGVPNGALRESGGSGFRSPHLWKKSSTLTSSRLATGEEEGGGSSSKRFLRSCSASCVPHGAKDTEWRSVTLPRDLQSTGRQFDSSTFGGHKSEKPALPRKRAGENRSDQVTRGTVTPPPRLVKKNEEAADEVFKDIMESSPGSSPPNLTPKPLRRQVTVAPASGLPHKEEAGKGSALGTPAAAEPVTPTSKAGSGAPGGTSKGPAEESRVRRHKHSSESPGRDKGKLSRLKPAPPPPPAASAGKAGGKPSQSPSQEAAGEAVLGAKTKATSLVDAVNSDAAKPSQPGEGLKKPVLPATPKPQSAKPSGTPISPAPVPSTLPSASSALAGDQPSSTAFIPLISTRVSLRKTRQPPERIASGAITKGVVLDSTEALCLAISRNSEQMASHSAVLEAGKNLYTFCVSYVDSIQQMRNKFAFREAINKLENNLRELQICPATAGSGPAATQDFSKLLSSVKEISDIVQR
T3 sequence (P07949 29-1114): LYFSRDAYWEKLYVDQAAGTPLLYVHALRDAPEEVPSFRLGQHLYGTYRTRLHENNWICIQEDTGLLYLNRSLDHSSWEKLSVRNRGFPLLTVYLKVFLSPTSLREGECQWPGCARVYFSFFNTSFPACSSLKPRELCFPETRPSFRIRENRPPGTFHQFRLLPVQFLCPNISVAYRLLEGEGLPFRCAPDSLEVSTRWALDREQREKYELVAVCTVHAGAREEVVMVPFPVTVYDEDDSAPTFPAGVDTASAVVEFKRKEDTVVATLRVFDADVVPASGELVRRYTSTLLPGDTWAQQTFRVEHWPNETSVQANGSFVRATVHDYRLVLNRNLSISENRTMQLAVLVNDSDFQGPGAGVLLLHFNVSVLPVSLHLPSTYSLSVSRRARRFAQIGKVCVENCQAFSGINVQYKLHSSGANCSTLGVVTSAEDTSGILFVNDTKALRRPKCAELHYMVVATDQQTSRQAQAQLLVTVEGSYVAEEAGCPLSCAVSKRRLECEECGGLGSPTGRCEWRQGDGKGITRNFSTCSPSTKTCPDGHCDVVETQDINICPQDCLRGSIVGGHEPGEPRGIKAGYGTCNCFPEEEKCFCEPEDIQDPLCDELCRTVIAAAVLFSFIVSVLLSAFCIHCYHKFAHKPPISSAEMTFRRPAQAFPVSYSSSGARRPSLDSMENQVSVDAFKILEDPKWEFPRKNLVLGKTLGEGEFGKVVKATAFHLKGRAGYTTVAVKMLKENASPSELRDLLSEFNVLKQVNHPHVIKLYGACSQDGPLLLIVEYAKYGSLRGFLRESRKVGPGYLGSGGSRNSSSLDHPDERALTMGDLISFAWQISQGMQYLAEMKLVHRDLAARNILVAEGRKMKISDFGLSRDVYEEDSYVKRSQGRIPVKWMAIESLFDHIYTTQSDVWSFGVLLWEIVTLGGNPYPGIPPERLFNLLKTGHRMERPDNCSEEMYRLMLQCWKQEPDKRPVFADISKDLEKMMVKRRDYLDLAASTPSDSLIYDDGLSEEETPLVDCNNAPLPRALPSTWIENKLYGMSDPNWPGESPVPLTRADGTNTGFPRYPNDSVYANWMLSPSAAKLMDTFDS

For the molecule `c1ccc2c(-c3cnn4cc(-c5ccc(N6CCNCC6)cc5)cnc34)ccnc2c1` [LDN-193189, reference compound], the inhibition at 0.1 µM in assay [1] is 3.63%; in assay [2], 1.34%; in assay [3] it was 10.8%; in assay [4] it was -28.2%; in assay [5], 4.39%; in assay [6], 12.5%. The inhibition at 0.1 µM in assay [7] is -12.4%.
For the molecule `CN1CCc2cccc(c2)Nc2nccc(n2)N2CCCc3cc(ccc32)C1` [OD16], the inhibition at 0.1 µM in assay [1] was -16%; in assay [2], 1.32%; in assay [3], -29.1%; in assay [4] it was 1.33%; in assay [5], -36.6%; in assay [6], -20.1%. Also, in assay [7], the inhibition at 0.1 µM was -12%.
Consider `CN1CCC(=O)NCCNc2ccn3ncc(c3n2)-c2cccc(c2)C1` [OD29], for which the inhibition at 0.1 µM was -9.93% in assay [1]; -9.1% in assay [2]; 27.1% in assay [3]; 3.34% in assay [4]; 3.64% in assay [5]; 18.7% in assay [6]. Also, the inhibition at 0.1 µM in assay [7] stood at 7.22%.

For the origin of these results see publication PMC8231556, “Inhibiting Endothelial Cell Function in Normal and Tumor Angiogenesis Using BMP Type I Receptor Macrocyclic Kinase Inhibitors” (Cancers, 2021).
